{"source": "patent US9169203B2", "about": "“Sulfoxide-based surfactants” (Novus International Inc., priority 2012, dated 2015)", "key": {"[1]": {"assay": "Critical micelle concentration (CMC), Wilhelmy plate method", "type": "physicochemical", "details": "in water at 25° C. and atmospheric pressure", "method": "(§1) To determine whether the sulfoxide-based compounds synthesized in Examples 1-9 had surfactant properties, the critical micelle concentration (CMC), surface tension, and solubility were determined. The Wilhelmy plate method was used to determine the equilibrium surface or interfacial tension at an air-liquid interface. A Cahn DCA 322 high-sensitivity balance was used to perform the measurement. Glass slides manufactured by Corning with a width of 22 mm and thickness of 0.1 mm were used as probes; the motor speed was set to be 160 μm/sec. […] The measured force was converted to surface tension using the Wilhelmy equation. The CMC was calculated according to standard procedures.\n(§2) The following compounds were tested: (1) hexyl 2-hydroxy-4-[…] (R6SO); (2) octyl 2-hydroxy-4-(methylsulfinyl)butanoate (R8SO); (3) a mixture of 70 wt % R8SO and 30 wt % decyl 2-hydroxy-4-(methylsulfinyl)butanoate (R10SO); (4) a mixture of 70 wt % R8SO and 30 wt % dodecyl 2-hydroxy-4-(methylsulfinyl)butanoate (R12SO); (5) 2-hydroxy-4-(methylsulfinyl)-N-octylbutanamide (R8NHSO); (6) a mixture of 60 wt % R8NHSO and 40 wt % 2-hydroxy-4-(methylsulfinyl)-N-decylbutanamide (R10NHSO); (7) a mixture of 75 wt % R8NHSO and 25 wt % 2-hydroxy-4-(methylsulfinyl)-N-dodecylbutanamide (R12NHSO); as well as the commercially available nonionic surfactants (8) Igepal® CO-630, a branched nonylphenol ethoxylate, and two alkyl ethylene oxides, (9) hexaethylene glycol monododecyl ether (C12E6) and (10) hexaethylene glycol monodecyl ether (C10E6)."}, "[2]": {"assay": "Surface tension at air-liquid interface at CMC, Wilhelmy plate method", "type": "physicochemical", "details": "25° C. and atmospheric pressure", "method": "as §1, §2"}, "Solubility in water": {"assay": "Solubility in water", "type": "physicochemical", "details": "in water at 25° C. and atmospheric pressure", "method": "as §1, §2"}, "fresh water algae": {"tested_on": "fresh water algae", "assay": "Fresh water algae growth inhibition test (OECD 201)", "type": "cell-based", "details": "at 72 hr", "method": "(§3) The potential hazards of the sulfoxide-based compounds were examined by evaluating the toxicity of R8SO in three standard bioassays (i.e., fresh water algae growth inhibition test, Daphnia acute immobilization test, and fresh water fish acute toxicity test).\nThe fresh water algae growth inhibition test was conducted according to OECD 201 guidelines. Briefly, exponentially growing fresh water algae were exposed to several concentrations of the test substances in batch cultures over a period of 72 hours. The cultures were allowed unrestricted exponential growth under nutrient sufficient conditions and continuous fluorescent illumination. Three replicates at each test concentration were used. Growth was monitored over time and compared to the average growth of control cultures (with no test substances). Growth and growth inhibition are quantified from measurements of the algal biomass as a function of time."}, "Daphnia": {"tested_on": "Daphnia", "assay": "Daphnia acute immobilization test (OECD 202)", "type": "in vivo", "details": "at 48 hr", "method": "as §3\nThe Daphnia acute immobilization test was performed according to the OECD 202 guidelines. Briefly, young daphnids, ages less than 24 hours at the start of the test, were exposed to the test substances at a range of concentrations for a period of 48 hours. Generally, at least 20 animals, preferably divided into four groups of five animals each, were tested for each test concentration and for the controls (i.e., no test substance). The Daphnia were not fed during the test. At least 2 mL of test solution were provided for each animal. Temperatures were held between 18 and 22° C., and for each single test the temperature was within ±1° C. Immobilization was recorded at 24 hours and 48 hours, and compared to control values. Those animals that could not swim within 15 seconds after gentle agitation of the test container were considered to be immobile."}, "[3]": {"tested_on": "fresh water fish (i.e., fathead minnows)", "assay": "Fresh water fish acute toxicity test (OECD 203)", "type": "in vivo", "details": "at 96 hr", "method": "as §3\nThe fresh water fish acute toxicity test was conduced according to OECD 203 guidelines. For this test, fresh water fish (i.e., fathead minnows) were exposed to a series of concentrations of the test substances for a period of 96 hours. At least seven fishes were used at each test concentration and in the controls. Mortalities were recorded at 24, 48, 72, and 96 hours. Fish were considered dead if there was no visible movement (e.g. gill movements) and if touching of the caudal peduncle produced no reaction. The mortality counts were used to determine LC50, the concentration that killed 50% of the fish."}}}
{"smiles": "CCCCCCCCCCOCCOCCOCCOCCOCCOCCO", "note": "[Example C10E6, hexaethylene glycol monodecyl ether, reference compound]", "values": [{"measurement": "CMC", "setting": "[1]", "value": 0.90, "unit": "mM"}, {"measurement": "Surface Tension at CMC", "setting": "[2]", "value": 42, "unit": "mN/m"}]}
{"smiles": "CCCCCCCCCCCCOCCOCCOCCOCCOCCOCCO", "note": "[Example C12E6, hexaethylene glycol monododecyl ether, reference compound]", "values": [{"measurement": "CMC", "setting": "[1]", "value": 0.087, "unit": "mM"}, {"measurement": "Surface Tension at CMC", "setting": "[2]", "value": 41, "unit": "mN/m"}]}
{"smiles": "CCCCCCOC(=O)C(O)CC[S+](C)[O-]", "note": "(stereo not shown) [Example R6SO, hexyl 2-hydroxy-4-(methylsulfinyl)butanoate]", "values": [{"measurement": "CMC", "setting": "[1]", "value": 120.9, "unit": "mM"}, {"measurement": "Surface Tension at CMC", "setting": "[2]", "value": 33, "unit": "mN/m"}, {"measurement": "Solubility", "setting": "Solubility in water", "value": ">50% (wt/wt total)"}]}
{"smiles": "CCCCCCCCNC(=O)C(O)CC[S+](C)[O-]", "note": "(stereo not shown) [Example R8NHSO, 2-hydroxy-4-(methylsulfinyl)-N-octylbutanamide]", "values": [{"measurement": "CMC", "setting": "[1]", "value": 10.3, "unit": "mM"}, {"measurement": "Surface Tension at CMC", "setting": "[2]", "value": 29, "unit": "mN/m"}, {"measurement": "Solubility", "setting": "Solubility in water", "value": ">50% (wt/wt total)"}]}
{"smiles": "CCCCCCCCOC(=O)C(O)CC[S+](C)[O-]", "note": "(stereo not shown) [Example R8SO, octyl 2-hydroxy-4-(methylsulfinyl)butanoate]", "values": [{"measurement": "CMC", "setting": "[1]", "value": 11.7, "unit": "mM"}, {"measurement": "Surface Tension at CMC", "setting": "[2]", "value": 29, "unit": "mN/m"}, {"measurement": "Solubility", "setting": "Solubility in water", "value": ">50% (wt/wt total)"}, {"measurement": "EC50 (50 percent reduction in growth relative to the control)", "setting": "fresh water algae", "value": 175, "unit": "ppm"}, {"measurement": "EC50 (concentration at which 50% of the animals were immobilized)", "setting": "Daphnia", "value": 79, "unit": "ppm"}, {"measurement": "LC50 (concentration that killed 50% of the fish)", "setting": "[3]", "value": 148, "unit": "ppm"}]}
